According to patent US8361988B2, “Nucleoside and nucleotide analogues with quaternary carbon centers and methods of use” (Institut de Recherches Cliniques de Montreal, priority 2007, dated 2013):
pEC50: −log10 of the molar value.

How the values were obtained:
[1] = in vitro; conditions: human, MOLT-4 cells
[2] = in vitro; conditions: human, NCI H1395 cells
[3] = target: T1, Drosophila melanogaster dNK (Drosophila melanogaster, UniProt Q9XZT6); assay: Phosphorylation assay (spectrophotometric coupled-enzyme), D. melanogaster dNK; assay type: biochemical; conditions: substrate at 100 μM, 37° C., 1 mM ATP, triplicate
T1 sequence (Q9XZT6 1-250): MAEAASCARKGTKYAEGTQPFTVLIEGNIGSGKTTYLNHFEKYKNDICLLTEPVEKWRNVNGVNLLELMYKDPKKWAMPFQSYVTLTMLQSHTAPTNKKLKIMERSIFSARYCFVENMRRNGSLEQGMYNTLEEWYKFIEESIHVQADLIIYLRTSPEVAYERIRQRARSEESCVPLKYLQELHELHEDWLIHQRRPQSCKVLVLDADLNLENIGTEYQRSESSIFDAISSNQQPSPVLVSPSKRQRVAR
Description: Compounds of the invention were also tested in a phosphorylation assay using three deoxynucleoside kinases. […] The compounds were at substrate concentration of 100 μM.
Kinetic assay. […] Briefly, the individual nucleosides at 100 μM were prepared in reaction buffer containing 50 mM Tris-HCl (pH 7.5), 0.1 M KCl, 5 mM MgCl2, 1 mM DTT, 1 mM ATP, 0.21 mM phosphoenolpyruvate, 0.18 mM NADH, and 2 units/ml pyruvate kinase and 2 units/ml lactate dehydrogenase (Roche Biochemicals, Indianapolis, Ind.). Assays were performed at 37° C. by measuring the absorbance change at 340 nm. The enzyme amount was adjusted to limit NADH turnover to 10% over the time of the experiment. All experiments were performed in triplicate.

[4] = target: Thermotoga maritima thymidine kinase (Thermotoga maritima, UniProt Q9WYN2); assay: Phosphorylation assay (spectrophotometric coupled-enzyme), T. maritima TK; assay type: biochemical; conditions: substrate at 100 μM, 37° C., 1 mM ATP, triplicate
Sequence of Thermotoga maritima thymidine kinase (Q9WYN2 whole entry): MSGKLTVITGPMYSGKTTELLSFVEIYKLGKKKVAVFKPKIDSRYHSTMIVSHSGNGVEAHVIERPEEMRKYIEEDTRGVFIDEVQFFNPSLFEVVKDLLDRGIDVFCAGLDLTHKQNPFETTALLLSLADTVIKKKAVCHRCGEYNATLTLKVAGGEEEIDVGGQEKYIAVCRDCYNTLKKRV
Description: Compounds of the invention were also tested in a phosphorylation assay using three deoxynucleoside kinases. The kinases include human dCK, which is responsible for the activation of numerous nucleoside analog prodrugs; Drosophila melanogaster dNK, which is the fastest known kinases with the broadest substrate specificity profile; and Thermotoga maritima thymidine kinase, which is a good surrogate for human thymidine kinase 1, a member of the distinct type II kinase subfamily. The compounds were at substrate concentration of 100 μM.
Kinetic assay. Substrate phosphorylation was determined using a spectrophotometric coupled-enzyme assay (Munch-Petersen et al. (2000) J. Biol. Chem. vol. 275p. 66′73-66′79; Schelling et al. (2001) Anal. Biochem vol. 295 p. 82-8′7). Briefly, the individual nucleosides at 100 μM were prepared in reaction buffer containing 50 mM Tris-HCl (pH 7.5), 0.1 M KCl, 5 mM MgCl2, 1 mM DTT, 1 mM ATP, 0.21 mM phosphoenolpyruvate, 0.18 mM NADH, and 2 units/ml pyruvate kinase and 2 units/ml lactate dehydrogenase (Roche Biochemicals, Indianapolis, Ind.). Assays were performed at 37° C. by measuring the absorbance change at 340 nm. The enzyme amount was adjusted to limit NADH turnover to 10% over the time of the experiment. All experiments were performed in triplicate.

[5] = in vitro; conditions: human, NCI H2052 cells
[6] = test system: ZR-75-1; assay: MTT cell proliferation assay, ZR-75-1; assay type: cell-based; conditions: Homo sapiens, ZR-75-1, 72 h, concentration reducing cell growth by 50% after 72 hours, 1% DMSO
Description: (§1) The antitumor activities of the compounds of the invention were evaluated by a cellular proliferation assay. The MTT [3-(4,5-dimethylthiazol-2-yl)-2,5-diphenyltetrazolium bromide] cell proliferation assay, first described by Mosmann (Mosmann T., “Rapid colorimetric assay for cellular growth and survival: application to proliferation and cytotoxicity assays,” J. Immunol. Methods 1983 Dec. 16; 65(1-2):55-63, and incorporated by reference in its entirety) is based on the ability of active mitochondrial reductase enzymes from viable cells to cleave the tetrazolium rings of the pale yellow MTT. The cleavage reaction form a purple formazan crystals which is largely impermeable to cell membranes resulting in its accumulation within healthy cells. Solubilisation of the cells by addition of a detergent liberates and solubilizes the formazan crystals. The number of surviving cells is directly proportional to the level of the formazan product created. The color can then be quantified spectrophotometrically. The production of purple formazan in cells treated with a compound is measured relative to the production in control cells, and dose-response curves can be generated. This assay measures the cell proliferation rate and conversely, when metabolic events lead to apoptosis or necrosis, the reduction in cell viability, thus also allowing the evaluation of the cytotoxicity of the analogues synthesized in the laboratory.
(§2) For Tables 3 and 4, the assays were performed with 1% DMSO. The abbreviation “n.d.” means “not determined.” The values EC50, CC50, and SI have the following definitions.
(§3) Cell growth equals total cell count without any inhibitor after 72 hours minus initial cell count. Total cell counts after 72 hrs of growth range from 230 to 346% of initial cell counts depending on the cell line.
(§4) Total cell counts after 24 hrs of growth range from 103 to 109% of initial cell counts depending on the cell line.
(§5) SI: Selectivity Index is the ratio CC50/EC50.

[7] = MTT cell proliferation assay, ZR-75-1; assay type: cell-based; conditions: human, ZR-75-1 cells, concentration causing 50% cell death of initial cell count over 24 hours, 1% DMSO
Description: as §1, §2, §3, §4, §5

[8] = test system: PFSK-1; assay: MTT cell proliferation assay, PFSK-1; assay type: cell-based; conditions: Homo sapiens, PFSK-1, 72 h, concentration reducing cell growth by 50% after 72 hours, 1% DMSO
Description: (§6) The antitumor activities of the compounds of the invention were evaluated by a cellular proliferation assay. […] The cleavage reaction form a purple formazan crystals which is largely impermeable to cell membranes resulting in its accumulation within healthy cells. Solubilisation of the cells by addition of a detergent liberates and solubilizes the formazan crystals. The number of surviving cells is directly proportional to the level of the formazan product created. The color can then be quantified spectrophotometrically. The production of purple formazan in cells treated with a compound is measured relative to the production in control cells, and dose-response curves can be generated. This assay measures the cell proliferation rate and conversely, when metabolic events lead to apoptosis or necrosis, the reduction in cell viability, thus also allowing the evaluation of the cytotoxicity of the analogues synthesized in the laboratory.
as §2
(§7) Cell growth equals total cell count without any inhibitor after 72 hours minus initial cell count.
as §5

[9] = MTT cell proliferation assay, PFSK-1; assay type: cell-based; conditions: human, PFSK-1 cells, concentration causing 50% cell death of initial cell count over 24 hours, 1% DMSO
Description: as §6, §2, §7, §5

[10] = test system: Panc 02.03; assay: MTT cell proliferation assay, Panc 02.03; assay type: cell-based; conditions: Homo sapiens, concentration reducing cell growth by 50% after 72 hours, 1% DMSO
Description: as §6, §2, §7, §5

[11] = MTT cell proliferation assay, Panc 02.03; assay type: cell-based; conditions: human, Panc 02.03 cells, concentration causing 50% cell death of initial cell count over 24 hours, 1% DMSO
Description: as §6, §2, §7, §5

| Structure (SMILES) | CC50 at 24 h [1] [µM] | CC50 at 24 h [2] [µM] | D. melanogaster dNK substrate phosphorylation [3] | T. maritima TK substrate phosphorylation [4] | CC50 at 24 h [5] [µM] | pEC50 [6] | CC50 at 24 h [7] [µM] | pEC50 [8] | CC50 at 24 h [9] [µM] | D. melanogaster dNK substrate phosphorylation ([3]; listed as LCB-1009-1) | T. maritima TK substrate phosphorylation ([4]; listed as LCB-1009-1) | pEC50 [10] | CC50 at 24 h [11] [µM] | D. melanogaster dNK substrate phosphorylation ([3]; listed as LCB-1010-1) | T. maritima TK substrate phosphorylation ([4]; listed as LCB-1010-1) | D. melanogaster dNK substrate phosphorylation ([3]; listed as LCB-1015-1) | T. maritima TK substrate phosphorylation ([4]; listed as LCB-1015-1) | D. melanogaster dNK substrate phosphorylation ([3]; listed as LCB-1022-1) | T. maritima TK substrate phosphorylation ([4]; listed as LCB-1022-1) |
| --- | --- | --- | --- | --- | --- | --- | --- | --- | --- | --- | --- | --- | --- | --- | --- | --- | --- | --- | --- |
| Cc1cc(=O)[nH]c(=O)n1[C@H]1CC(C)(CO)[C@@H](CO)O1 (mixture of isomers) [LCB-1021, 1-(4,5-Bis-hydroxymethyl-4-methyl-tetrahydro-furan-2-yl)-6-methyl-1H-pyrimidine-2,4-dione] | > 500 | > 500 | <0.1 10^6 μmol/min mg | 2.2 10^−3 μmol/min mg | > 500 | < 3.30 | > 500 | < 3.30 | > 500 |  |  |  |  |  |  |  |  |  |  |
| COC(=O)C1(C)C[C@H](n2cc(C)c(=O)[nH]c2=O)O[C@@H]1CO (mixture of isomers) [LCB-1009, (±) methyl 2-(hydroxymethyl)-3-methyl-5-(5-methyl-2,4-dioxo-3,4-dihydropyrimidin-1(2H)-yl)tetrahydrofuran-3-carboxylate] |  | > 500 |  |  | > 500 | < 3.30 | > 500 | < 3.30 | > 500 | 3.49 10^6 μmol/min mg | 11.9 10^−3 μmol/min mg | < 3.30 | > 500 |  |  |  |  |  |  |
| COC(=O)C1(C)CC(n2cc(C)c(=O)[nH]c2=O)OC1CO (racemic) [LCB-1010, (±) methyl 2-(hydroxymethyl)-3-methyl-5-(5-methyl-2,4-dioxo-3,4-dihydropyrimidin-1(2H)-yl)tetrahydrofuran-3-carboxylate] |  | > 500 |  |  | > 500 | 3.74 | > 500 | < 3.30 | > 500 |  |  | < 3.30 | > 500 | 2.84 10^6 μmol/min mg | 6 10^−3 μmol/min mg |  |  |  |  |
| Cc1cc(=O)[nH]c(=O)n1[C@H]1CC2(C)C(=O)OC[C@H]2O1 (single isomer, unassigned) [LCB-1020, 6-Methyl-1-(3a-methyl-4-oxo-hexahydro-furo[3,4-b]furan-2-yl)-1H-pyrimidine-2,4-dione] | > 500 | > 500 | <0.1 10^6 μmol/min mg | <1 10^−3 μmol/min mg | > 500 | < 3.30 | > 500 | < 3.30 | > 500 |  |  |  |  |  |  |  |  |  |  |
| CCOC(=O)[C@@H]1O[C@H](n2cc(C)c(=O)[nH]c2=O)CC1(C)C(=O)OCC (stereo partly drawn) [LCB-1019, (2R,5S)-diethyl 3-methyl-5-(5-methyl-2,4-dioxo-3,4-dihydropyrimidin-1(2H)-yl)tetrahydrofuran-2,3-dicarboxylate] | > 460 | > 460 | <0.1 10^6 μmol/min mg | 6.1 10^−3 μmol/min mg | > 460 | < 3.34 | > 460 | < 3.34 | > 460 |  |  |  |  |  |  |  |  |  |  |
| COC(=O)C1(C)C[C@H](n2cc(F)c(=O)[nH]c2=O)O[C@@H]1CO (mixture of isomers) [LCB-1015, 5-(5-Fluoro-2,4-dioxo-3,4-dihydro-2H-pyrimidin-1-yl)-2-hydroxymethyl-3-methyl-tetrahydro-furan-3-carboxylic acid methyl ester] |  | > 500 |  |  | > 500 | 3.38 | > 500 | 3.42 | > 500 |  |  | < 3.30 | > 500 |  |  | <0.1 10^6 μmol/min mg | <1 10^−3 μmol/min mg |  |  |
| CCOC(=O)[C@@H]1O[C@H](n2cc(F)c(=O)[nH]c2=O)CC1(C)C(=O)OCC (stereo in doubt) [LCB-1024, (2R,5S)-diethyl5-(5-fluoro-2,4-dioxo-3,4-dihydropyrimidin-1(2H)-yl)-3-methyltetrahydrofuran-2,3-dicarboxylate] | > 460 | > 460 | <0.1 10^6 μmol/min mg | 4.2 10^−3 μmol/min mg | > 460 | < 3.34 | > 460 | 3.72 | > 460 |  |  |  |  |  |  |  |  |  |  |
| COC(=O)C1(C)C[C@H](n2cc(F)c(=O)[nH]c2=O)O[C@@H]1CO (mixture of isomers) [LCB-1022, 5-(5-Fluoro-2,4-dioxo-3,4-dihydro-2H-pyrimidin-1-yl)-2-hydroxymethyl-3-methyl-tetrahydro-furan-3-carboxylic acid methyl ester] | > 500 |  |  |  |  |  |  |  |  |  |  |  |  |  |  |  |  | 1.88 10^6 μmol/min mg | 3 10^−3 μmol/min mg |
| CCOC(=O)[C@@H]1O[C@H](n2ccc(=O)[nH]c2=O)CC1(C)C(=O)OCC (stereo partly drawn) [LCB-1025, (2R,5S)-diethyl 5-(2,4-dioxo-3,4-dihydropyrimidin-1(2H)-yl)-3-methyltetrahydrofuran-2,3-dicarboxylate] | > 460 | > 460 | <0.1 10^6 μmol/min mg | <1 10^−3 μmol/min mg | > 460 | < 3.34 | > 460 | < 3.34 | > 460 |  |  |  |  |  |  |  |  |  |  |
